{
  "source": "patent US20210017607A1",
  "about": "“Methods of Predicting Responsiveness to Cancer Therapies” (The University of Chicago, priority 2019, published 2021)",
  "key": {"Pi3K enzymatic activity": {"tested_on": "Pi3K enzymatic activity", "test": "Intratumoral target inhibition by western blotting", "assay_type": "in vivo, mouse", "settings": "B6-Myc and Myc-CAP tumors; 30 mg/kg oral gavage daily 7 days", "experimental": "(§1) FIGS. 18A and 18B. Buparlisib and Rucaparib inhibit intratumoral Pi3K and PARP enzymatic activity, respectively, within B6-Myc (STING^hi) and Myc-CAP (STING^lo) tumors. Subcutaneous Myc-CAP (STING^lo) and B6-Myc (STING^hi) tumors at 400-500 mm^3 volumes were treated with either buparlisib (pan-PI3K inhibitor, 30 mg/kg) or rucaparib (PARP inhibitor, 150 mg/kg) by oral gavage daily for 7 days. At end of treatment, both (18A) B6-Myc (STING^hi) and (18B) Myc-CAP (STING^lo) tumors were harvested and protein extracts utilized for assessment of target inhibition with the indicated antibodies by western blotting. n=2 mice per treatment group.\n(§2) Western Blot Analysis. RIPA and T-PER buffer (Thero Scientific®), supplemented with protease (Roche®) and HALT phosphatase inhibitor cocktail (Roche®), were used for preparation of lysates from in vitro cell lines and whole tumor chunks, respectively. For western blotting, the following antibodies were used from Cell Signaling Technology®: Polyclonal rabbit anti-mouse-phospho-γH2AX, phospho-AKT, total AKT, cGAS, STING, phospho-IRF3, total IRF3, phospho-TBK1, total TBK1, PTEN, β-actin and GAPDH. Monoclonal anti-mouse PAR antibody was obtained from Trevigen®. Images of scanned blots were processed using ADOBE Photoshop®."}, "PARP enzymatic activity": {"tested_on": "PARP enzymatic activity", "test": "Intratumoral target inhibition by western blotting", "assay_type": "in vivo, mouse", "settings": "B6-Myc and Myc-CAP tumors; 150 mg/kg oral gavage daily 7 days", "experimental": "as §1, §2"}, "[1]": {"tested_on": "Myc-CAP-PTEN-deficient cancer cells", "test": "Exosome dsDNA content by Nanodrop", "assay_type": "cell-based, mouse", "settings": "rucaparib 36 hours", "experimental": "FIGS. 40A and 40B. […] Isogenic PTEN-proficient and CRISPR-CAS9-mediated PTEN-knockout Myc-CAP cells were treated with rucaparib for 36 hours. Exosomes were collected by ultracentrifugation and used for quantification of particle number by Nanosight (40A) and dsDNA content by Nanodrop® (40B). n=2 experiments.\nFIGS. 41A and 41B. […] Exosomes were collected by ultracentrifugation and used for quantification of particle number by Nanosight (41A) and dsDNA content by Nanodrop® (41B). n=2 experiments.\nMicrovesicle Isolation (MVs)/DNA extraction. Cells were treated for 36 hours with the indicated drugs, and supernatants were harvested and then centrifuged at 300×g for 5 minutes at 4° C. to pellet cells, This was followed by additional centrifugation steps at 2,000×g for 10 min at 4° C. to eliminate dead cell debris and at 10,000×g for 30 min in at 4° C. to remove larger vesicles. The supernatant was then collected and subjected to 100,000×g centrifugation in a Type 60 Ti rotor (38000 rpm) for 70 min at 4 ° C. […] The final EV pellet was collected in 1×PBS and used for quantification. […] Equal numbers of EVs were collected from each treatment group and DNA was extracted using Trizol® LS as per protocol (Thermo Fischer Scientific®) and then quantified using Nanodrop®."}, "[2]": {"tested_on": "B6-Myc (STING^hi) cancer cells", "test": "IFNβ1 ELISA of supernatants after DMXAA treatment", "assay_type": "cell-based, mouse", "settings": "36 hours", "experimental": "FIGS. 15A-15E. Differential STING pathway activation within B6-Myc (STING^hi) cell lines and BMDMs relative to Myc-CAP (STING^lo) cells. (15A, 15B) The indicated cancer cell lines and BMDMs were treated with DMXAA (mouse STING agonist) for 1 and 24 hours, respectively, and protein extracts were interrogated for cGAS/STING pathway activation with the indicated antibodies by Western blotting. Supernatants were collected from for IFNβ1 ELISA following 36 hours of treatment with DMXAA (15C, 15D). (15E) Syngeneic Myc-CAP (STING^lo) tumors were processed into single cell suspensions and used for phycoerythrin-based sorting of CD45+ cellular fractions. Equal numbers of cells from these fractions were stimulated with DMXAA. Supernatants were collected at 36 hrs for detection of IFNB1 by ELISA; n=3 independent experiments; Significance/p-values were calculated by one-way Anova (for 15C & 15E) or paired t-test (for 15D); TAM=tumor associated macrophage; s.e.=short exposure; l.e.=long exposure.\nCancer Cell Lines. Transgenic c-myc” prostate tumor derived cell line, Myc-CAP) (STING^lo) was obtained from ATCC and passaged in 1× DMEM (without phenol red) containing 10% fetal bovine serum, 1% penicillin-streptomycin and 2% L-glutamine. The corresponding c-myc^hi line derived from a C57BL6 generated background were grown for in vitro studies, using same culture conditions as for Myc-CAP. […]"}},
  "data": [
    {"smiles": "Nc1cc(C(F)(F)F)c(-c2cc(N3CCOCC3)nc(N3CCOCC3)n2)cn1", "note": "[buparlisib]", "values": [
      {"measurement": "intratumoral Pi3K enzymatic activity", "setting": "Pi3K enzymatic activity", "value": "inhibit"}
    ]},
    {"smiles": "CNCc1ccc(-c2[nH]c3cc(F)cc4c3c2CCNC4=O)cc1", "note": "[rucaparib]", "values": [
      {"measurement": "intratumoral PARP enzymatic activity", "setting": "PARP enzymatic activity", "value": "inhibit"},
      {"measurement": "exosomal dsDNA content relative to PTEN-proficient counterparts", "setting": "[1]; CRISPR-CAS9 PTEN-knockout", "value": "significantly reduced dsDNA content"},
      {"measurement": "exosomal dsDNA content relative to PTEN-proficient counterparts", "setting": "[1]; siRNA PTEN-knockdown", "value": "significantly reduced dsDNA content"}
    ]},
    {"smiles": "Cc1ccc2c(=O)c3cccc(CC(=O)O)c3oc2c1C", "note": "[DMXAA, 5,6-Dimethylxanthenone-4-acetic Acid]", "values": [
      {"measurement": "fold induction in IFN-β levels", "setting": "[2]", "value": 48.1, "unit": "fold"}
    ]}
  ]
}
